Measured values: patent US8802597B2, “Herbicidal pyrimidines” (E I du Pont de Nemours and Company, priority 2003, dated 2014)
Where two headings read alike, the source gives them in different places.

Tests used:
Format in all cases: in vivo
rice (Oryza sativa) = assay: Test C flooded paddy test; conditions: Flood, scale 0 to 100
Description: (§1) At the same time, plants selected from these crop and weed species and also winter barley (Hordeum vulgare), blackgrass (Alopecurus myosuroides), canarygrass (Phalaris minor), chickweed (Stellaria media), downy brome (Bromus tectorum), green foxtail (Setaria viridis), Italian ryegrass (Lolium multiflorum), wheat (Triticum aestivum), wild oat (Avena fatua) and windgrass (Apera spica-venti) were treated with postemergence applications of some of the test chemicals formulated in the same manner. Plants ranged in height from 2 to 18 cm (1- to 4-leaf stage) for postemergence treatments. Plant species in the flooded paddy test consisted of rice (Oryza sativa), umbrella sedge (Cyperus difformis), duck salad (Heteranthera limosa) and barnyardgrass (Echinochloa crus-galli) grown to the 2-leaf stage for testing. Treated plants and controls were maintained in a greenhouse for 12 to 14 days, after which time all species were compared to controls and visually evaluated. Plant response ratings, summarized in Table C, are based on a scale of 0 to 100 where 0 is no effect and 100 is complete control. A dash (-) response means no test result.

[1] = tested on: barnyardgrass (Echinochloa crus-galli); assay: Test C flooded paddy test; conditions: Flood
Description: as §1

[2] = tested on: umbrella sedge (Cyperus difformis); assay: Test C flooded paddy test; conditions: Flood, scale 0 to 100
Description: as §1

[3] = tested on: winter barley (Hordeum vulgare); assay: Test C postemergence
Method in brief: (§2)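 Pre: seeds planted, sprayed same day. Post: 1- to 4-leaf plants (2–18 cm). Formulation: non-phytotoxic solvent + surfactant. Greenhouse 12–14 d; visual % control vs untreated, 0–100.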

[4] = tested on: wheat (Triticum aestivum); assay: Test C postemergence
Method in brief: as §2

[5] = tested on: green foxtail (Setaria viridis); assay: Test C postemergence
Method in brief: as §2

[6] = tested on: downy brome (Bromus tectorum); assay: Test C postemergence
Method in brief: as §2

[7] = tested on: blackgrass (Alopecurus myosuroides); assay: Test C postemergence
Method in brief: as §2

[8] = tested on: canarygrass (Phalaris minor); assay: Test C postemergence
Method in brief: as §2

[9] = tested on: Italian ryegrass (Lolium multiflorum); assay: Test C postemergence
Method in brief: as §2

wild oat (Avena fatua) = assay: Test C postemergence
Method in brief: as §2

[10] = tested on: windgrass (Apera spica-venti); assay: Test C postemergence
Method in brief: as §2

[11] = tested on: giant foxtail (Setaria faberi); assay: Test A pre/postemergence; conditions: Setaria faberi, 240 h, read-out: Plant response rating, Foxtail, Giant; for pest or weed control at 125 g/ha: 125 g ai/ha; for pest or weed control at 500 g/ha: 500 g ai/ha
Method in brief: (§3)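 Visual injury scores on a 0–100 scale, 100 being complete control, were assigned roughly ten days after treatment by comparison with untreated greenhouse controls. Test chemicals, formulated with surfactant in non-phytotoxic solvent, were sprayed onto soil preemergence and onto 1–2-leaf plants 2–10 cm tall postemergence.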

[12] = tested on: redroot pigweed (Amaranthus retroflexus); assay: Test A pre/postemergence; conditions: Amaranthus retroflexus, 240 h, read-out: Plant response rating, Pigweed; for pest or weed control at 125 g/ha: 125 g ai/ha; for pest or weed control at 500 g/ha: 500 g ai/ha
Method in brief: as §3

[13] = tested on: morningglory (Ipomoea spp.); assay: Test A pre/postemergence; conditions: Ipomoea, 240 h, read-out: Plant response rating, Morningglory; for pest or weed control at 125 g/ha: 125 g ai/ha; for pest or weed control at 500 g/ha: 500 g ai/ha
Method in brief: as §3

[14] = tested on: velvetleaf (Abutilon theophrasti); assay: Test A pre/postemergence; conditions: Abutilon theophrasti, 240 h, read-out: Plant response rating, Velvetleaf; for pest or weed control at 125 g/ha: 125 g ai/ha; for pest or weed control at 500 g/ha: 500 g ai/ha
Method in brief: as §3

[15] = 500 g ai/ha, scale 0 to 100 (0 no effect, 100 complete control)
[16] = post-emergence, Postemergence, 0 to 100 scale (0 no effect, 100 complete control)
[17] = pre-emergence, Preemergence, 0 to 100 scale where 0 is no effect and 100 is complete control, approximately ten days

Structure (SMILES): COC(=O)c1nc(C2CC2)nc(N)c1Cl [Compound 9, methyl 6-amino-5-chloro-2-cyclopropyl-4-pyrimidinecarboxylate]
- Plant response rating, Rice (rice (Oryza sativa); 62 g ai/ha): 0
- Plant response rating, Rice (rice (Oryza sativa); 125 g ai/ha): 30
- Plant response rating, Rice (rice (Oryza sativa); 250 g ai/ha): 55
- Plant response rating, Rice (rice (Oryza sativa); 500 g ai/ha): 75
- Plant response rating, Barnyardgrass ([1]; 62 g ai/ha, scale 0 to 100): 0
- Plant response rating, Barnyardgrass ([1]; 125 g ai/ha, scale 0 to 100): 15
- Plant response rating, Barnyardgrass ([1]; 250 g ai/ha, scale 0 to 100): 55
- Plant response rating, Barnyardgrass [1, 15]: 85
- Plant response rating, Sedge, Umbrella ([2]; 62 g ai/ha): 0
- Plant response rating, Sedge, Umbrella ([2]; 125 g ai/ha): 15
- Plant response rating, Sedge, Umbrella ([2]; 250 g ai/ha): 15
- Plant response rating, Sedge, Umbrella ([2]; 500 g ai/ha): 85

Structure (SMILES): CC(C)COC(=O)c1nc(C2CC2)nc(N)c1Br [Compound 17]
- Plant response rating, Rice (rice (Oryza sativa); 62 g ai/ha): 0
- Plant response rating, Rice (rice (Oryza sativa); 125 g ai/ha): 0
- Plant response rating, Rice (rice (Oryza sativa); 250 g ai/ha): 45
- Plant response rating, Rice (rice (Oryza sativa); 500 g ai/ha): 75
- Plant response rating, Barnyardgrass ([1]; 62 g ai/ha, scale 0 to 100): 0
- Plant response rating, Barnyardgrass ([1]; 125 g ai/ha, scale 0 to 100): 0
- Plant response rating, Barnyardgrass ([1]; 250 g ai/ha, scale 0 to 100): 0
- Plant response rating, Barnyardgrass [1, 15]: 50
- Plant response rating, Sedge, Umbrella ([2]; 62 g ai/ha): 0
- Plant response rating, Sedge, Umbrella ([2]; 125 g ai/ha): 0
- Plant response rating, Sedge, Umbrella ([2]; 250 g ai/ha): 20
- Plant response rating, Sedge, Umbrella ([2]; 500 g ai/ha): 25

Structure (SMILES): CNc1nc(C2CC2)nc(C(=O)OC)c1Cl [Compound 79]
- Plant response rating (scale of 0 to 100), Barley ([3]; 16 g ai/ha): 0
- Plant response rating (scale of 0 to 100), Barley ([3]; 31 g ai/ha): 30
- plant injury at 62 g/ha ([3]; Hordeum vulgare, post-emergence, 62 g ai/ha, scale 0 to 100 (0 no effect, 100 complete control), read-out: Barley plant response rating): 35%
- plant injury at 125 g/ha ([3]; Hordeum vulgare, post-emergence, 125 g ai/ha, scale 0 to 100 (0 no effect, 100 complete control), read-out: Barley plant response rating): 35%
- Plant response rating (scale of 0 to 100), Wheat ([4]; 16 g ai/ha): 0
- Plant response rating (scale of 0 to 100), Wheat ([4]; 31 g ai/ha): 20
- Plant response rating (scale of 0 to 100), Wheat ([4]; 62 g ai/ha): 30
- plant injury at 125 g/ha ([4]; Triticum aestivum, post-emergence, 125 g ai/ha, scale 0 to 100 (0 no effect, 100 complete control), read-out: Wheat plant response rating): 40%
- Plant response rating (scale of 0 to 100), Foxtail, Green ([5]; 16 g ai/ha): 20
- Plant response rating (scale of 0 to 100), Foxtail, Green ([5]; 31 g ai/ha): 20
- Plant response rating (scale of 0 to 100), Foxtail, Green ([5]; 62 g ai/ha): 30
- pest or weed control at 125 g/ha ([5]; Setaria viridis, post-emergence, 125 g ai/ha, scale 0 to 100 (0 no effect, 100 complete control), read-out: Foxtail, Green plant response rating): 60%
- Plant response rating (scale of 0 to 100), Bromegrass, Downy ([6]; 16 g ai/ha): 0
- Plant response rating (scale of 0 to 100), Bromegrass, Downy ([6]; 31 g ai/ha): 20
- Plant response rating (scale of 0 to 100), Bromegrass, Downy ([6]; 62 g ai/ha): 30
- pest or weed control at 125 g/ha ([6]; Bromus tectorum, post-emergence, 125 g ai/ha, scale 0 to 100 (0 no effect, 100 complete control), read-out: Bromegrass, Downy plant response rating): 35%
- Plant response rating (scale of 0 to 100), Blackgrass ([7]; 16 g ai/ha): 20
- Plant response rating (scale of 0 to 100), Blackgrass ([7]; 31 g ai/ha): 40
- Plant response rating (scale of 0 to 100), Blackgrass ([7]; 62 g ai/ha): 60
- pest or weed control at 125 g/ha ([7]; Alopecurus myosuroides, post-emergence, 125 g ai/ha, scale 0 to 100 (0 no effect, 100 complete control), read-out: Blackgrass plant response rating): 60%
- Plant response rating (scale of 0 to 100), Canarygrass ([8]; 16 g ai/ha): 0
- Plant response rating (scale of 0 to 100), Canarygrass ([8]; 31 g ai/ha): 20
- Plant response rating (scale of 0 to 100), Canarygrass ([8]; 62 g ai/ha): 25
- pest or weed control at 125 g/ha ([8]; Phalaris minor, post-emergence, 125 g ai/ha, scale 0 to 100 (0 no effect, 100 complete control), read-out: Canarygrass plant response rating): 35%
- Plant response rating (scale of 0 to 100), Ryegrass, Italian ([9]; 16 g ai/ha): 35
- Plant response rating (scale of 0 to 100), Ryegrass, Italian ([9]; 31 g ai/ha): 35
- Plant response rating (scale of 0 to 100), Ryegrass, Italian ([9]; 62 g ai/ha): 40
- pest or weed control at 125 g/ha ([9]; Lolium multiflorum, post-emergence, 125 g ai/ha, scale 0 to 100 (0 no effect, 100 complete control), read-out: Ryegrass, Italian plant response rating): 45%
- Plant response rating (scale of 0 to 100), Oat, Wild (wild oat (Avena fatua); 16 g ai/ha): 0
- Plant response rating (scale of 0 to 100), Oat, Wild (wild oat (Avena fatua); 31 g ai/ha): 25
- Plant response rating (scale of 0 to 100), Oat, Wild (wild oat (Avena fatua); 62 g ai/ha): 25
- pest or weed control at 125 g/ha (wild oat (Avena fatua); Avena fatua, post-emergence, 125 g ai/ha, scale 0 to 100 (0 no effect, 100 complete control), read-out: Oat, Wild plant response rating): 45%
- Plant response rating (scale of 0 to 100), Windgrass ([10]; 16 g ai/ha): 40
- Plant response rating (scale of 0 to 100), Windgrass ([10]; 31 g ai/ha): 40
- Plant response rating (scale of 0 to 100), Windgrass ([10]; 62 g ai/ha): 45
- pest or weed control at 125 g/ha ([10]; Apera spica-venti, post-emergence, 125 g ai/ha, scale 0 to 100 (0 no effect, 100 complete control), read-out: Windgrass plant response rating): 50%
- pest or weed control at 125 g/ha [11, 16]: 80%
- pest or weed control at 500 g/ha [11, 16]: 90%
- pest or weed control at 125 g/ha [11, 17]: 40%
- pest or weed control at 500 g/ha [11, 17]: 95%
- pest or weed control at 125 g/ha [12, 16]: 90%
- pest or weed control at 500 g/ha [12, 16]: 100%
- pest or weed control at 125 g/ha [12, 17]: 90%
- pest or weed control at 500 g/ha [12, 17]: 100%
- pest or weed control at 125 g/ha [13, 16]: 90%
- pest or weed control at 500 g/ha [13, 16]: 95%
- pest or weed control at 125 g/ha [13, 17]: 55%
- pest or weed control at 500 g/ha [13, 17]: 100%
- pest or weed control at 125 g/ha [14, 16]: 90%
- pest or weed control at 500 g/ha [14, 16]: 95%
- pest or weed control at 125 g/ha [14, 17]: 60%
- pest or weed control at 500 g/ha [14, 17]: 90%
